No end group written: not given here.
Key:
adrenal gland = assay: MRI of adrenal glands after ACTH-MNP injection; type: in vivo, mouse; conditions: tail vein
Method: ACTH-MNP was injected through tail vein (approximately 1 μg iron-oxide per gram of body weight) in a 1-day old mouse and a 60-day old mouse. MR images (T2, TE 6000, TR=[…], 0.4-1 mm slice thickness, 3 cm FOV, Brucker Biospin 7T) were obtain before, and up to 3 hours after injection with these contrast agents.

[1] = Tissue half-life of the particles; conditions: in vivo
[2] = Shelf-life of the compounds; type: physicochemical
AtT-20 cells = assay: Functional studies of tumor cells: c-AMP production; type: cell-based, Murine
Method: Functional studies of tumor cells. Murine pituitary tumor cell lines (AtT-20 cells; American Type Culture Collection designation CCL-89™) were incubated with CRF and CRF-MNP preparations at 6 different molar concentrations of CRF and CRF-equivalent concentration of CRF-MNP (10^−12-10^−7 molar, factor of 10 increase per step). Production of c-AMP (nM) was measured after equivalent times of incubation with all the preparations.

[3] = equivalent CRF concentrations 10^−12-10^−7 molar

Substance | uptake in the adrenals (adrenal gland; 1-day old mouse, 5 μl) | uptake in the adrenals (adrenal gland; 60 day old mouse, 100 μl) | tissue half-life [1] | shelf-life [2] | cytotoxicity (AtT-20 cells; AtT-20 cells) | functional properties of CRF while conjugated to the nanoparticles (AtT-20 cells; cellular level) | decrease in potency compared to CRF (c-AMP production) (AtT-20 cells; [3]) | increase in efficacy compared to CRF (c-AMP production) (AtT-20 cells; [3])
ACTH-MNP: Adrenocorticotropin Hormone (ACTH)-conjugated dextran-coated and epoxy surface-modified magnetonanoparticles, 10-15 nm diameter (SYSMEHFRWGKPVGKKRRPVKVYPNGAEDESAEAFPLEF; also: conjugated to dextran-coated, epoxy surface-modified magnetic nanoparticles; UniProt P01189 138-176, looked up) | increased uptake (decreased signal intensity) | increased uptake (decreased signal intensity) | order of hours to days | 2-3 months | – | – | – | –
CRF-MNP: CRF-conjugated dextran-coated and maleimide surface-modified magnetonanoparticles, 10-15 nm diameter | – | – | order of hours to days | 6-12 months | not cytotoxic | retains its functional properties | approximately 10 fold | two-fold increase
